# Test results as given in patent US12404285B2, “KRAS G12D proteolysis targeting chimeras” (PAQ Therapeutics Inc., priority 2022, dated 2025).
# Biological target: T1, KRAS (G12D)-HiBit in AsPc-1-KRAS (G12D)-HiBit-KI cell (Homo sapiens, UniProt P01116, G12D)
# T1 construct: host or cells: AsPc-1-KRAS (G12D)-HiBit-KI cells (knock-in line)
# Experiment: G12D HiBit assay
# Type: cell-based
# Settings: 24 hours compound treatment, absolute DC50, read-out: Average PHA DC50
# Method in brief: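 AsPc-1 cells with HiBiT knocked into KRAS G12D, seeded at 5×10^3/well and held overnight, then treated 24 h with 10-point 3-fold dilutions (300 nM to 0.015 nM). Lytic Nano-Glo HiBiT luminescence expressed as % of 0.1% DMSO control; absolute DC50 from curve fit.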
# T1 sequence (P01116 1-188 isoform P01116-2 G12D): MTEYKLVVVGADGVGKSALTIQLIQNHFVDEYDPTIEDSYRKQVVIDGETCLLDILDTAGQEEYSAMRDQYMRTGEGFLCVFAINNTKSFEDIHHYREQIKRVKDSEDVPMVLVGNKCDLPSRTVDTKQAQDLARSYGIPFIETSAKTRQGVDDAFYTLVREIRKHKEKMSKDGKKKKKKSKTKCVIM
row,DC50,SMILES
1,≥ 300 nM,"C#Cc1c(F)ccc2cccc(-c3ncc4c(N5CC6CCC(C5)N6)nc(OC[C@@]56CCCN5[C@H](COC(=O)NC[C@@H]5CN(CC#Cc7cccc8c7n(C)c(=O)n8C7CCC(=O)NC7=O)CCO5)CC6)nc4c3F)c12 (stereo partly drawn) [Compound 125, [(3S,8S)-8-[[4-(3,8-Diazabicyclo[3.2.1]octan-3-yl)-7-(8-ethynyl-7-fluoro-1-naphthyl)-8-fluoro-pyrido[4,3-d]pyrimidin-2-yl]oxymethyl]-1,2,3,5,6,7-hexahydropyrrolizin-3-yl]methylN-[[(2R)-4-[3-[1-(2,6-dioxo-3-piperidyl)-3-methyl-2-oxo-benzimidazol-4-yl]prop-2-ynyl]morpholin-2-yl]methyl]carbamate]"
2,≥ 300 nM,"C#Cc1c(F)ccc2cccc(-c3ncc4c(N5CC6CCC(C5)N6)nc(OC[C@@]56CCCN5[C@H](COC(=O)NC[C@@H]5CN(CCCc7cccc8c7n(C)c(=O)n8C7CCC(=O)NC7=O)CCO5)CC6)nc4c3F)c12 (stereo partly drawn) [Compound 126, [(3S,8S)-8-[[4-(3,8-Diazabicyclo[3.2.1]octan-3-yl)-7-(8-ethynyl-7-fluoro-1-naphthyl)-8-fluoro-pyrido[4,3-d]pyrimidin-2-yl]oxymethyl]-1,2,3,5,6,7-hexahydropyrrolizin-3-yl]methyl N-[[(2 R)-4-[3-[1-(2,6-dioxo-3-piperidyl)-3-methyl-2-oxo-benzimidazol-4-yl]propyl]morpholin-2-yl]methyl]carbamate]"
3,≥ 300 nM,"C#Cc1c(F)ccc2cccc(-c3ncc4c(N5CC6CCC(C5)N6)nc(OC[C@@]56CCCN5[C@H](COC(=O)N5CCC(C7CCN(c8cccc9c8n(C)c(=O)n9C8CCC(=O)NC8=O)CC7)CC5)CC6)nc4c3F)c12 (stereo partly drawn) [Compound 127, [(3S,8S)-8-[[4-(3,8-Diazabicyclo[3.2.1]octan-3-yl)-7-(8-ethynyl-7-fluoro-1-naphthyl)-8-fluoro-pyrido[4,3-d]pyrimidin-2-yl]oxymethyl]-1,2,3,5,6,7-hexahydropyrrolizin-3-yl]methyl 4-[1-[1-(2,6-dioxo-3-piperidyl)-3-methyl-2-oxo-benzimidazol-4-yl]-4-piperidyl]piperidine-1-carboxylate]"
4,< 100 nM,"C#Cc1c(F)ccc2cccc(-c3ncc4c(N5CC6CCC(C5)N6)nc(OC[C@@]56CCCN5[C@H](COC(=O)N5CCC(COC7CCN(Cc8cccc9c8n(C)c(=O)n9C8CCC(=O)NC8=O)CC7)CC5)CC6)nc4c3F)c12 (stereo partly drawn) [Compound 128, [(3S,8S)-8-[[4-(3,8-diazabicyclo[3.2.1]octan-3-yl)-7-(8-ethynyl-7-fluoro-1-naphthyl)-8-fluoro-pyrido[4,3-d]pyrimidin-2-yl]oxymethyl]-1,2,3,5,6,7-hexahydropyrrolizin-3-yl]methyl4-[[1-[[1-(2,6-dioxo-3-piperidyl)-3-methyl-2-oxo-benzimidazol-4-yl]methyl]-4-piperidyl]oxymethyl]piperidine-1-carboxylate]"
5,≥ 300 nM,"C#Cc1c(F)ccc2cccc(-c3ncc4c(N5CC6CCC(C5)N6)nc(OC[C@@]56CCCN5[C@H](COC(=O)N5CCC7(CC5)CCN(c5cccc8c5n(C)c(=O)n8C5CCC(=O)NC5=O)CC7)CC6)nc4c3F)c12 (stereo partly drawn) [Compound 129, [(3S,8S)-8-[[4-(3,8-Diazabicyclo[3.2.1]octan-3-yl)-7-(8-ethynyl-7-fluoro-1-naphthyl)-8-fluoro-pyrido[4,3-d]pyrimidin-2-yl]oxymethyl]-1,2,3,5,6,7-hexahydropyrrolizin-3-yl]methyl9-[1-(2,6-dioxo-3-piperidyl)-3-methyl-2-oxo-benzimidazol-4-yl]-3,9-diazaspiro[5.5]undecane-3-carboxylate]"
6,< 100 nM,"C#Cc1c(F)ccc2cccc(-c3ncc4c(N5CC6CCC(C5)N6)nc(OC[C@@]56CCCN5[C@H](COC(=O)N5CCC(OC7CCN(Cc8cccc9c8n(C)c(=O)n9C8CCC(=O)NC8=O)CC7)CC5)CC6)nc4c3F)c12 (stereo partly drawn) [Compound 130, [(3S,8S)-8-[[4-(3,8-Diazabicyclo[3.2.1]octan-3-yl)-7-(8-ethynyl-7-fluoro-1-naphthyl)-8-fluoro-pyrido[4,3-d]pyrimidin-2-yl]oxymethyl]-1,2,3,5,6,7-hexahydropyrrolizin-3-yl]methyl4-[[1-[[1-(2,6-dioxo-3-piperidyl)-3-methyl-2-oxo-benzimidazol-4-yl]methyl]-4-piperidyl]oxy]piperidine-1-carboxylate]"
7,≥ 300 nM,"C#Cc1c(F)ccc2cccc(-c3ncc4c(N5CC6CCC(C5)N6)nc(OC[C@@]56CCCN5[C@H](COC(=O)N5CCC(N7CCN(c8cccc9c8n(C)c(=O)n9C8CCC(=O)NC8=O)CC7)CC5)CC6)nc4c3F)c12 (stereo partly drawn) [Compound 131, [(3S,8S)-8-[[4-(3,8-Diazabicyclo[3.2.1]octan-3-yl)-7-(8-ethynyl-7-fluoro-1-naphthyl)-8-fluoro-pyrido[4,3-d]pyrimidin-2-yl]oxymethyl]-1,2,3,5,6,7-hexahydropyrrolizin-3-yl]methyl4-[4-[1-(2,6-dioxo-3-piperidyl)-3-methyl-2-oxo-benzimidazol-4-yl]piperazin-1-yl]piperidine-1-carboxylate]"
8,< 100 nM,"C#Cc1c(F)ccc2cccc(-c3ncc4c(N5C[C@H]6CC[C@@H](C5)N6)nc(OC[C@@]56CCCN5[C@H](COC(=O)N5CCC(CC7CCN(Cc8cccc9c8n(C)c(=O)n9C8CCC(=O)NC8=O)CC7)CC5)CC6)nc4c3F)c12 (stereo partly drawn) [Compound 132, ((3S,7aS)-7a-(((4-((1R,5S)-3,8-Diazabicyclo[3.2.1]octan-3-yl)-7-(8-ethynyl-7-fluoronaphthalen-1-yl)-8-fluoropyrido[4,3-d]pyrimidin-2-yl)oxy)methyl)hexahydro-1H-pyrrolizin-3-yl)methyl4-((1-((1-(2,6-dioxopiperidin-3-yl)-3-methyl-2-oxo-2,3-dihydro-1H-benzo[d]imidazol-4-yl)methyl)piperidin-4-yl)methyl)piperidine-1-carboxylate]"
9,≥ 300 nM,"C#Cc1c(F)ccc2cccc(-c3ncc4c(N5CC6CCC(C5)N6)nc(OC[C@@]56CCCN5[C@H](COC(=O)N5CCC(OCCc7ccc8c(c7)n(C)c(=O)n8C7CCC(=O)NC7=O)CC5)CC6)nc4c3F)c12 (stereo partly drawn) [Compound 133, [(3S,8S)-8-[[4-(3,8-Diazabicyclo[3.2.1]octan-3-yl)-7-(8-ethynyl-7-fluoro-1-naphthyl)-8-fluoro-pyrido[4,3-d]pyrimidin-2-yl]oxymethyl]-1,2,3,5,6,7-hexahydropyrrolizin-3-yl]methyl 4-[2-[1-(2,6-dioxo-3-piperidyl)-3-methyl-2-oxo-benzimidazol-5-yl]ethoxy]piperidine-1-carboxylate]"
10,< 100 nM,"C#Cc1c(F)ccc2cccc(-c3ncc4c(N5CC6CCC(C5)N6)nc(OC[C@@]56CCCN5[C@H](COC(=O)N(C)CCC5CCN(Cc7cccc8c7n(C)c(=O)n8C7CCC(=O)NC7=O)CC5)CC6)nc4c3F)c12 (stereo partly drawn) [Compound 134, [(3S,8S)-8-[[4-(3,8-diazabicyclo[3.2.1]octan-3-yl)-7-(8-ethynyl-7-fluoro-1-naphthyl)-8-fluoro-pyrido[4,3-d]pyrimidin-2-yl]oxymethyl]-1,2,3,5,6,7-hexahydropyrrolizin-3-yl]methyl N-[2-[1-[[1-(2,6-dioxo-3-piperidyl)-3-methyl-2-oxo-benzimidazol-4-yl]methyl]-4-piperidyl]ethyl]-N-methyl-carbamate]"
11,< 100 nM,"C#Cc1c(F)ccc2cccc(-c3ncc4c(N5CC6CCC(C5)N6)nc(OC[C@@]56CCCN5[C@H](COC(=O)N5CCC(OCCc7cccc8c7n(C)c(=O)n8C7CCC(=O)NC7=O)CC5)CC6)nc4c3F)c12 (stereo partly drawn) [Compound 135, [(3S,8S)-8-[[4-(3,8-Diazabicyclo[3.2.1]octan-3-yl)-7-(8-ethynyl-7-fluoro-1-naphthyl)-8-fluoro-pyrido[4,3-d]pyrimidin-2-yl]oxymethyl]-1,2,3,5,6,7-hexahydropyrrolizin-3-yl]methyl 4-[2-[1-(2,6-dioxo-3-piperidyl)-3-methyl-2-oxo-benzimidazol-4-yl]ethoxy]piperidine-1-carboxylate]"
12,< 100 nM,"C#Cc1c(F)ccc2cccc(-c3ncc4c(N5CC6CCC(C5)N6)nc(OC[C@@]56CCCN5[C@H](COC(=O)N5CCC(OCCCc7ccc8c(c7)n(C)c(=O)n8C7CCC(=O)NC7=O)CC5)CC6)nc4c3F)c12 (stereo partly drawn) [Compound 136, [(3S,8S)-8-[[4-(3,8-Diazabicyclo[3.2.1]octan-3-yl)-7-(8-ethynyl-7-fluoro-1-naphthyl)-8-fluoro-pyrido[4,3-d]pyrimidin-2-yl]oxymethyl]-1,2,3,5,6,7-hexahydropyrrolizin-3-yl]methyl 4-[3-[1-(2,6-dioxo-3-piperidyl)-3-methyl-2-oxo-benzimidazol-5-yl]propoxy]piperidine-1-carboxylate]"
13,≥ 300 nM,"C#Cc1c(F)ccc2cccc(-c3ncc4c(N5CC6CCC(C5)N6)nc(OC[C@@]56CCCN5[C@H](COC(=O)N5CCC(OCCCc7cccc8c7n(C)c(=O)n8C7CCC(=O)N(C)C7=O)CC5)CC6)nc4c3F)c12 (stereo partly drawn) [Compound 144, [(3S,8S)-8-[[4-(3,8-Diazabicyclo[3.2.1]octan-3-yl)-7-(8-ethynyl-7-fluoro-1-naphthyl)-8-fluoro-pyrido[4,3-d]pyrimidin-2-yl]oxymethyl]-1,2,3,5,6,7-hexahydropyrrolizin-3-yl]methyl 4-[3-[3-methyl-1-(1-methyl-2,6-dioxo-3-piperidyl)-2-oxo-benzimidazol-4-yl]propoxy]piperidine-1-carboxylate]"
14,< 100 nM,"C#Cc1c(F)ccc2cccc(-c3ncc4c(N5CC6CCC(C5)N6)nc(OC[C@@]56CCCN5[C@H](COC(=O)N5CCC(CNC7CCN(Cc8cccc9c8n(C)c(=O)n9C8CCC(=O)NC8=O)CC7)CC5)CC6)nc4c3F)c12 (stereo partly drawn) [Compound 145, [(3S,8S)-8-[[4-(3,8-Diazabicyclo[3.2.1]octan-3-yl)-7-(8-ethynyl-7-fluoro-1-naphthyl)-8-fluoro-pyrido[4,3-d]pyrimidin-2-yl]oxymethyl]-1,2,3,5,6,7-hexahydropyrrolizin-3-yl]methyl 4-[[[1-[[1-(2,6-dioxo-3-piperidyl)-3-methyl-2-oxo-benzimidazol-4-yl]methyl]-4-piperidyl]amino]methyl]piperidine-1-carboxylate]"
